Results: ChEMBL document CHEMBL5143548, “Morphinan derivatives with an oxabicyclo[3.2.1]octane structure as dual agonists toward δ and κ opioid receptors” (Bioorg Med Chem, 2022)

Columns and labels:
[1] = biological target: T1, Kappa-type opioid receptor (Homo sapiens, UniProt P41145); assay: Displacement of [3H]-U-69593 from recombinant human KOR expressed in CHO cell membranes measured after 2 hrs by microbeta scintillation counting method; set-up: species or system Membrane
[2] = biological target: T1, Kappa-type opioid receptor; assay: Agonist activity at human kappa opioid receptor expressed in CHO cell membranes assessed as stimulation of [35S]GTPgammaS binding incubated for 2 hrs by scintillation counting method relative to U-69593; type: functional; conditions: Membrane
Homo sapiens [3] = species on record: Homo sapiens; assay: Selectivity ratio of Ki for displacement of [3H]-DPDPE from recombinant human DOR expressed in CHO cell membranes to Ki for displacement of [3H]-U-69593 from recombinant human KOR expressed in CHO cell membranes
[4] = biological target: T1, Kappa-type opioid receptor; assay: Agonist activity at human kappa opioid receptor expressed in CHO cell membranes assessed as stimulation of [35S]GTPgammaS binding incubated for 2 hrs by scintillation counting method; type: functional, Membrane
[5] = biological target: T2, Delta-type opioid receptor (Homo sapiens, UniProt P41143); assay: Agonist activity at human delta opioid receptor expressed in CHO cell membranes assessed as stimulation of [35S]GTPgammaS binding incubated for 2 hrs by scintillation counting method relative to SNC80; type: functional; conditions: Membrane
Mu-type opioid receptor [6] = biological target: T3, Mu-type opioid receptor (Homo sapiens, UniProt P35372); assay: Displacement of [3H]-DAMGO from recombinant human MOR expressed in CHO cell membranes measured after 2 hrs by microbeta scintillation counting method; set-up: species or system Membrane
mu opioid receptor (MOR) = mu opioid receptor (MOR) (Homo sapiens, UniProt P35372); assay: Agonist activity at human mu opioid receptor expressed in CHO cell membranes assessed as stimulation of [35S]GTPgammaS binding incubated for 2 hrs by scintillation counting method relative to DAMGO; set-up: species or system Membrane; conditions: CHO cell membranes expressing human mu opioid receptor, probe [35S]GTPgammaS
[7] = biological target: T2, Delta-type opioid receptor; assay: Displacement of [3H]-DPDPE from recombinant human DOR expressed in CHO cell membranes measured after 2 hrs by microbeta scintillation counting method; set-up: species or system Membrane
Homo sapiens [8] = species on record: Homo sapiens; assay: Selectivity ratio of Ki for displacement of [3H]-DAMGO from recombinant human MOR expressed in CHO cell membranes to Ki for displacement of [3H]-U-69593 from recombinant human KOR expressed in CHO cell membranes
Mu-type opioid receptor [9] = biological target: T3, Mu-type opioid receptor; assay: Agonist activity at human mu opioid receptor expressed in CHO cell membranes assessed as stimulation of [35S]GTPgammaS binding incubated for 2 hrs by scintillation counting method; set-up: species or system Membrane
[10] = biological target: T2, Delta-type opioid receptor; assay: Agonist activity at human delta opioid receptor expressed in CHO cell membranes assessed as stimulation of [35S]GTPgammaS binding incubated for 2 hrs by scintillation counting method; type: functional, Membrane
Mu-type opioid receptor [11] = biological target: T3, Mu-type opioid receptor; assay: Agonist activity at human mu opioid receptor expressed in CHO cell membranes assessed as stimulation of [35S]GTPgammaS binding at 10 uM incubated for 2 hrs by scintillation counting method relative to DAMGO; set-up: species or system Membrane

T2 sequence (P41143 whole entry): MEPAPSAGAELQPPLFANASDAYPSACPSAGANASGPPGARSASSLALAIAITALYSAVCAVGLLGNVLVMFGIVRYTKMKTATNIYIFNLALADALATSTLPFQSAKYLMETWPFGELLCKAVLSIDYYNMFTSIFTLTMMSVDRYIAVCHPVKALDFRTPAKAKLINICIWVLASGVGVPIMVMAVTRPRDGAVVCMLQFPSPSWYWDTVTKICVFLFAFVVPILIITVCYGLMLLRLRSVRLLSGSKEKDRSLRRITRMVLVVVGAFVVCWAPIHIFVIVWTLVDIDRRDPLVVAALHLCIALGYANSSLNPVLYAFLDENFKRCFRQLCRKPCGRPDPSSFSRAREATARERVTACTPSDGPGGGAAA
T1 sequence (P41145 whole entry): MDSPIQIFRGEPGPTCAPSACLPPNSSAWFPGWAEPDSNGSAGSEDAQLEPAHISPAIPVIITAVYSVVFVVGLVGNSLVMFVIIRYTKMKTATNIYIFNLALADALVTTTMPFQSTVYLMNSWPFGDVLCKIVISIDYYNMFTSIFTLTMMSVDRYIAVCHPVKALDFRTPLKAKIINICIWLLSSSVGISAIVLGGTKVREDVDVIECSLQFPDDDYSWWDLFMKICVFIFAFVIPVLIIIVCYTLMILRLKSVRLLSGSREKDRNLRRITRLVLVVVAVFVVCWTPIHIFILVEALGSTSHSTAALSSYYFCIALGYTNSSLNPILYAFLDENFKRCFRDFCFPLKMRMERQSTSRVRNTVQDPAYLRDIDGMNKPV
T3 sequence (P35372 whole entry): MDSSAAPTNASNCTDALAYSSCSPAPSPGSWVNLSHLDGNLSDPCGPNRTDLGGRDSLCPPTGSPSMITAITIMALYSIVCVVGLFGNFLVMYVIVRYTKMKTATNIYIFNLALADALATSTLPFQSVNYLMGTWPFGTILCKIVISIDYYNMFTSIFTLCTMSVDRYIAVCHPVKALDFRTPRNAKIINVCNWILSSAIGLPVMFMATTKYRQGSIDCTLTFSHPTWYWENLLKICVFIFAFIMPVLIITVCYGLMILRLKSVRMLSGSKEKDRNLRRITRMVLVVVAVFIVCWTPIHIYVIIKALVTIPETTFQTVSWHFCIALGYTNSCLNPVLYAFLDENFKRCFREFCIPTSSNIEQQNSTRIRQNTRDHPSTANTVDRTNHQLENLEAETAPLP
Chain of mu opioid receptor (MOR) (P35372 whole entry): as above

## CN(C(=O)c1ccccc1)[C@@H]1C[C@]23CCN(CC4CC4)[C@H](Cc4ccc(O)cc42)[C@]32CC[C@@H]1O2
[1]
  Ki: 0.256 nM
[2]
  Emax: 34.6%
Homo sapiens [3]
  Ratio Ki: 90.6
[4]
  EC50: 1.59 nM
[5]
  Emax: 27.7%
Mu-type opioid receptor [6]
  Ki: 1.42 nM
Mu opioid receptor (MOR)
  Emax at 2 h: 47.5%
[7]
  Ki: 23.2 nM
Homo sapiens [8]
  Ratio Ki: 5.5
Mu-type opioid receptor [9]
  EC50: 4.7 nM
[10]
  EC50: 0.171 nM

## O=C(CCc1ccccc1)N[C@H]1C[C@]23CCN(CC4CC4)[C@H](Cc4ccc(O)cc42)[C@]32CC[C@@H]1O2
[1]
  Ki: 2.36 nM
[2]; filed as partial agonist
  Emax: 50.3%
Homo sapiens [3]
  Ratio Ki: 2.2
[4]
  EC50: 6.32 nM
[5]; filed as agonist
  Emax: 111%
Mu-type opioid receptor [6]
  Ki: 1.08 nM
Mu opioid receptor (MOR)
  Emax at 2 h: 11.4%
[7]
  Ki: 5.14 nM
Homo sapiens [8]
  Ratio Ki: 0.46
Mu-type opioid receptor [9]
  EC50: 9.35 nM
[10]
  EC50: 54.7 nM

## CN(C(=O)Cc1ccccc1)[C@@H]1C[C@]23CCN(CC4CC4)[C@H](Cc4ccc(O)cc42)[C@]32CC[C@@H]1O2
[1]
  Ki: 0.278 nM
[2]; filed as partial agonist
  Emax: 88.6%
Homo sapiens [3]
  Ratio Ki: 70.1
[4]
  EC50: 8.44 nM
[5]
  Emax: 39.7%
Mu-type opioid receptor [6]
  Ki: 1.74 nM
Mu opioid receptor (MOR)
  Emax at 2 h: 40.3%
[7]
  Ki: 19.5 nM
Homo sapiens [8]
  Ratio Ki: 6.3
Mu-type opioid receptor [9]
  EC50: 7.11 nM
[10]
  EC50: 43.6 nM

## O=C(Cc1ccccc1)N[C@H]1C[C@]23CCN(CC4CC4)[C@H](Cc4ccc(O)cc42)[C@]32CC[C@@H]1O2
[1]
  Ki: 1.71 nM
[2]
  Emax: 35.8%
Homo sapiens [3]
  Ratio Ki: 2.9
[4]
  EC50: 13.4 nM
[5]; filed as agonist
  Emax: 101%
Mu-type opioid receptor [6]
  Ki: 3.81 nM
Mu opioid receptor (MOR)
  Emax at 2 h: 8.7%
[7]
  Ki: 4.98 nM
Homo sapiens [8]
  Ratio Ki: 2.2
Mu-type opioid receptor [9]
  EC50: 5.37 nM
[10]
  EC50: 3.83 nM

## O=C(Cc1ccccc1)N[C@@H]1C[C@]23CCN(CC4CC4)[C@H](Cc4ccc(O)cc42)[C@]32CC[C@@H]1O2
[1]
  Ki: 0.193 nM
[2]; filed as partial agonist
  Emax: 68.4%
Homo sapiens [3]
  Ratio Ki: 2.7
[4]
  EC50: 3.11 nM
[5]; filed as agonist
  Emax: 85.3%
Mu-type opioid receptor [6]
  Ki: 0.267 nM
Mu opioid receptor (MOR)
  Emax at 2 h: 28.2%
[7]
  Ki: 0.522 nM
Homo sapiens [8]
  Ratio Ki: 1.4
Mu-type opioid receptor [9]
  EC50: 9.43 nM
[10]
  EC50: 5.96 nM

## O=C(N[C@@H]1C[C@]23CCN(CC4CC4)[C@H](Cc4ccc(O)cc42)[C@]32CC[C@@H]1O2)c1ccccc1
[1]
  Ki: 0.14 nM
[2]; filed as partial agonist
  Emax: 87.7%
Homo sapiens [3]
  Ratio Ki: 11.9
[4]
  EC50: 1.82 nM
[5]; filed as agonist
  Emax: 106%
Mu-type opioid receptor [6]
  Ki: 0.165 nM
Mu opioid receptor (MOR)
  Emax at 2 h: 47.2%
[7]
  Ki: 1.67 nM
Homo sapiens [8]
  Ratio Ki: 1.2
Mu-type opioid receptor [9]
  EC50: 2.72 nM
[10]
  EC50: 2.86 nM

## CN(C(=O)CCc1ccccc1)[C@@H]1C[C@]23CCN(CC4CC4)[C@H](Cc4ccc(O)cc42)[C@]32CC[C@@H]1O2
[1]
  Ki: 0.332 nM
[2]; filed as partial agonist
  Emax: 58.5%
Homo sapiens [3]
  Ratio Ki: 61.7
[4]
  EC50: 9.95 nM
[5]; filed as agonist
  Emax: 85.2%
Mu-type opioid receptor [6]
  Ki: 1.46 nM
Mu opioid receptor (MOR)
  Emax at 2 h: 33.4%
[7]
  Ki: 20.5 nM
Homo sapiens [8]
  Ratio Ki: 4.4
Mu-type opioid receptor [9]
  EC50: 5.61 nM
[10]
  EC50: 21.4 nM

## O=C(N[C@H]1C[C@]23CCN(CC4CC4)[C@H](Cc4ccc(O)cc42)[C@]32CC[C@@H]1O2)c1ccccc1
[1]
  Ki: 10.6 nM
[2]
  Emax: 23.7%
Homo sapiens [3]
  Ratio Ki: 0.54
[4]
  EC50: 32.4 nM
[5]; filed as agonist
  Emax: 97.4%
Mu-type opioid receptor [6]
  Ki: 0.564 nM
[7]
  Ki: 5.68 nM
Homo sapiens [8]
  Ratio Ki: 0.05
Mu-type opioid receptor [11]
  Activity: 10.2%
[10]
  EC50: 51.9 nM

## O=C(CCc1ccccc1)N[C@@H]1C[C@]23CCN(CC4CC4)[C@H](Cc4ccc(O)cc42)[C@]32CC[C@@H]1O2
[1]
  Ki: 0.197 nM
[2]; filed as partial agonist
  Emax: 75.4%
Homo sapiens [3]
  Ratio Ki: 26.3
[4]
  EC50: 5.31 nM
[5]; filed as agonist
  Emax: 104%
Mu-type opioid receptor [6]
  Ki: 0.126 nM
Mu opioid receptor (MOR)
  Emax at 2 h: 10.2%
[7]
  Ki: 5.18 nM
Homo sapiens [8]
  Ratio Ki: 0.64
Mu-type opioid receptor [9]
  EC50: 12.7 nM
[10]
  EC50: 112 nM
